Measurements: the supplement of paper PMC11061612

What was measured:
5637 (Bladder Carcinoma) [1] = assay: Bliss excess, mean over the matrix (fraction); higher = more synergy
Method in brief: (§1)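 Cell lines grown in DMEM/F12 or RPMI with 10% FBS were plated in 1536-well plates and held 24 hours at 37°C, 5% CO2 before 72 hours of exposure to two-drug dose matrices, with DMSO typically at 0.2%. CellTiter-Glo 2.0 luminescence gave viability, which was converted to inhibition. Vehicle wells were set to 0 and blank wells to 1. Combination Emax is the second-highest inhibition in the matrix, and Bliss excess is the observed combination effect minus the expected EA + EB − EA·EB, where EA and EB are the single-agent effects.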

EW-16 (Ewing's Sarcoma) = assay: as above
Method in brief: as §1

[2] = system: GA-10 (Burkitt's Lymphoma); assay: as above
Method in brief: as §1

[3] = system: JIMT-1 (Breast Carcinoma); assay: as above
Method in brief: as §1

[4] = system: KYSE-140 (Esophageal Squamous Cell Carcinoma); assay: as above
Method in brief: as §1

[5] = system: 22RV1 (Prostate Carcinoma); assay: combination Emax (second highest fraction inhibited in the dose matrix, 72 h); higher = more inhibition; extreme values may be limits of the assay
Method in brief: as §1

5637 (Bladder Carcinoma) [6] = assay: as above
Method in brief: as §1

A204 (Rhabdomyosarcoma) = assay: as above
Method in brief: as §1

[7] = system: ESO26 (Esophageal Adenocarcinoma); assay: as above
Method in brief: as §1

EW-7 (Ewing's Sarcoma) = assay: as above
Method in brief: as §1

[8] = system: G-402 (Other Solid Carcinomas); assay: as above
Method in brief: as §1

HCC70 (Breast Carcinoma) = assay: as above
Method in brief: as §1

[9] = system: HT55 (Colorectal Carcinoma); assay: as above
Method in brief: as §1

[10] = system: JHH-2 (Hepatocellular Carcinoma); assay: as above
Method in brief: as §1

[11] = system: JHU-022 (Oral Cavity Carcinoma); assay: as above
Method in brief: as §1

[12] = system: LS-411N (Colorectal Carcinoma); assay: as above
Method in brief: as §1

[13] = system: MDA-MB-436 (Breast Carcinoma); assay: as above
Method in brief: as §1

NB13 (Neuroblastoma) = assay: as above
Method in brief: as §1

[14] = system: OACp4C (Esophageal Adenocarcinoma); assay: as above
Method in brief: as §1

[15] = system: huH-1 (Hepatocellular Carcinoma); assay: as above
Method in brief: as §1
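Wherever Bliss excess, mean over the matrix is given: after 72 h of two-drug dosing.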

Structure (SMILES) | Bliss excess (5637 (Bladder Carcinoma) [1]) | Bliss excess (EW-16 (Ewing's Sarcoma)) | Bliss excess [2] | Bliss excess [3] | Bliss excess [4] | combination Emax [5] | combination Emax (5637 (Bladder Carcinoma) [6]) | combination Emax (A204 (Rhabdomyosarcoma)) | combination Emax [7] | combination Emax (EW-7 (Ewing's Sarcoma)) | combination Emax [8] | combination Emax (HCC70 (Breast Carcinoma)) | combination Emax [9] | combination Emax [10] | combination Emax [11] | combination Emax [12] | combination Emax [13] | combination Emax (NB13 (Neuroblastoma)) | combination Emax [14] | combination Emax [15]
CC1(C)CCC(CN2CCN(c3ccc(C(=O)NS(=O)(=O)c4ccc(NCC5CCOCC5)c([N+](=O)[O-])c4)c(Oc4cnc5[nH]ccc5c4)c3)CC2)=C(c2ccc(Cl)cc2)C1 [Venetoclax] + C[C@@H](Nc1cc(F)cc(F)c1)c1cc(C(=O)N(C)C)cc2c(=O)cc(N3CCOCC3)oc12 [AZD8186] (first compound max 1 µM, 7x7, partner max 3 µM) | -0.0273 | -0.0278 | -0.0088 | -0.0411 | -0.0149 | 0.322 | 0.141 | 0.327 | 0.0996 | 0.95 | 0.29 | 0.532 | 0.14 | 0.806 | 0.314 | 0.343 | 0.288 | 0.253 | 0.31 | 0.152
C=CCn1c(=O)c2cnc(Nc3ccc(N4CCN(C)CC4)cc3)nc2n1-c1cccc(C(C)(C)O)n1 [AZD1775] + O=C(c1cc(Cc2n[nH]c(=O)c3ccccc23)ccc1F)N1CCN(C(=O)C2CC2)CC1 [Olaparib] (first compound max 1 µM, partner max 10 µM) | -0.0551 | -0.0129 | -0.0462 | -0.0795 | -0.0418 | 0.323 | 0.836 | 0.24 | 0.474 | 0.82 | 0.41 | 0.56 | 0.454 | 0.574 | 0.432 | 0.417 | 0.271 | 0.935 | 0.806 | 0.634
COc1cccc2c1C(=O)c1c(O)c3c(c(O)c1C2=O)C[C@@](O)(C(=O)CO)C[C@@H]3O[C@H]1C[C@H](N)[C@H](O)[C@H](C)O1 [Doxorubicin] + Cc1cc2ncnn2cc1Nc1ncc2c(n1)n(C1CCOCC1)c(=O)n2C [AZD7648] (first compound max 1 µM, 7x7, partner max 10 µM) | 0.0902 | 0.0933 | 0.0964 | 0.0514 | 0.05 | 0.805 | 0.546 | 0.925 | 0.801 | 0.889 | 0.949 | 0.488 | 0.678 | 0.627 | 0.858 | 0.508 | 0.504 | 0.923 | 0.783 | 0.55
Cc1c2c(nn1C)CSCc1cc(n(C)n1)CSc1cc(c3ccccc3c1)OCCCc1c(C(=O)O)n(C)c3c-2c(Cl)ccc13 [AZD5991] + C1CN(CCC1(C(=O)N[C@@H](CCO)C2=CC=C(C=C2)Cl)N)C3=NC=NC4=C3C=CN4 [Capivasertib] (first compound max 1 µM, 7x7, partner max 3 µM) | -0.004 | -0.0456 | 0.0138 | -0.0056 | 0.0196 | 0.706 | 0.174 | 0.689 | 0.405 | 0.725 | 0.984 | 0.99 | 0.269 | 0.604 | 0.356 | 0.362 | 0.201 | 0.349 | 0.783 | 0.227
Cc1c2c(nn1C)CSCc1cc(n(C)n1)CSc1cc(c3ccccc3c1)OCCCc1c(C(=O)O)n(C)c3c-2c(Cl)ccc13 [AZD5991] + Cc1cc2ncnn2cc1Nc1ncc2c(n1)n(C1CCOCC1)c(=O)n2C [AZD7648] (first compound max 1 µM, 7x7, partner max 10 µM) | -0.0232 | -0.0174 | -0.0508 | -0.0541 | -0.0345 | 0.575 | 0.233 | 0.659 | 0.198 | 0.652 | 0.939 | 0.926 | 0.242 | 0.596 | 0.245 | 0.116 | 0.226 | 0.245 | 0.485 | 0.337
COc1cccc(OCCCN)c1-c1cc(Nc2cnc(C#N)cn2)n[nH]1 [Prexasertib] + CN(C)CCCOc1ccc(-c2ccc3ncc4c(c3c2)n(C2CCOCC2)c(=O)n4C)cn1 [AZD0156] (first compound max 1 µM, 7x7, partner max 1 µM) | -0.0174 | 0.023 | 0.0213 | 0.0375 | -0.0129 | 0.532 | 0.849 | 0.633 | 0.571 | 0.981 | 0.562 | 0.922 | 0.614 | 0.837 | 0.659 | 0.782 | 0.41 | 0.935 | 0.672 | 0.756
Cc1c2c(nn1C)CSCc1cc(n(C)n1)CSc1cc(c3ccccc3c1)OCCCc1c(C(=O)O)n(C)c3c-2c(Cl)ccc13 [AZD5991] + CCN(CCO)CCCOc1ccc2c(Nc3cc(CC(=O)Nc4cccc(F)c4)[nH]n3)ncnc2c1 [AZD2811] (first compound max 1 µM, 7x7, partner max 1 µM) | 0.0103 | 0.117 | -0.0092 | 0.0203 | 0.0169 | 0.399 | 0.91 | 0.688 | 0.319 | 0.655 | 0.946 | 0.935 | 0.553 | 0.325 | 0.273 | 0.178 | 0.181 | 0.615 | 0.827 | 0.387
